# According to ChEMBL document CHEMBL3608284, “C4 phenyl aporphines with selective h5-HT(2B) receptor affinity” (Bioorg Med Chem Lett, 2015):
# Tests used:
# [1] = target: Muscarinic acetylcholine receptor M4 (Homo sapiens) (UniProt P08173); test: Binding affinity to muscarinic M4 receptor (unknown origin) at 10 uM
# [2] = target: Alpha-1B adrenergic receptor (Homo sapiens) (UniProt P35368); test: Binding affinity to alpha1B adrenoceptor (unknown origin) at 10 uM
# [3] = target: T1, 5-hydroxytryptamine receptor 1A (Homo sapiens) (UniProt P08908); test: Displacement of [3H]-8-OH-DPAT from 5HT1A receptor (unknown origin) at 10 uM
# T1 sequence (whole entry): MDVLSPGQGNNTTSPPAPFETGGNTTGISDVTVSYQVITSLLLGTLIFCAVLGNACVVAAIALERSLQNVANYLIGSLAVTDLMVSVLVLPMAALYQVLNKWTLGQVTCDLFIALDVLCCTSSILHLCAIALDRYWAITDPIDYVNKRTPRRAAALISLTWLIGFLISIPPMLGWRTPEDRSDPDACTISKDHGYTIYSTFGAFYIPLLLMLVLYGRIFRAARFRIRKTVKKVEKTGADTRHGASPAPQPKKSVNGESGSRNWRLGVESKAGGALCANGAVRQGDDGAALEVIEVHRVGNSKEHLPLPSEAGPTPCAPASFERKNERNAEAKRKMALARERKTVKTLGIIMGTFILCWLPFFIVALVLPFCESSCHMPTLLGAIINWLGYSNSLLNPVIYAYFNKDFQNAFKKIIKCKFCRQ
# [4] = target: T2, 5-hydroxytryptamine receptor 2C (Homo sapiens) (UniProt P28335); test: Displacement of [3H]mesulergine from 5HT2C receptor (unknown origin) at 10 uM
# T2 sequence (whole entry): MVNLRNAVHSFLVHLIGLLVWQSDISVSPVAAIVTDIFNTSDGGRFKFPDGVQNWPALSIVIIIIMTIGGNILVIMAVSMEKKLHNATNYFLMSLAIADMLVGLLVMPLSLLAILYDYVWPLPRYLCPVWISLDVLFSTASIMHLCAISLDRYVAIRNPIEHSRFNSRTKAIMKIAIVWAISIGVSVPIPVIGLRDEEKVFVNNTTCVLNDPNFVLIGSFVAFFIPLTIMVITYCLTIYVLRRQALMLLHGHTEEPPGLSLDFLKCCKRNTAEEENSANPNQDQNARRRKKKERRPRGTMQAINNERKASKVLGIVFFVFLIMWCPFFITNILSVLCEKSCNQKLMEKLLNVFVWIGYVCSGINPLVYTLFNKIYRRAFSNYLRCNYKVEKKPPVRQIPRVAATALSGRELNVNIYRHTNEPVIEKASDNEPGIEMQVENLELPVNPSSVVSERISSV
# [5] = target: GABA-A receptor; agonist GABA site (Homo sapiens) (UniProt P14867+P47870+P28472+P48169+P34903+P18505+P47869+P31644+Q16445); test: Binding affinity to GABAA receptor (unknown origin) at 10 uM; type: protein-complex assay
# [6] = target: 5-hydroxytryptamine receptor 1D (Homo sapiens) (UniProt P28221); test: Displacement of [3H]GR125743 from 5HT1D receptor (unknown origin) at 10 uM
# [7] = target: D(2) dopamine receptor (Homo sapiens) (UniProt P14416); test: Binding affinity to dopamine D2 receptor (unknown origin) at 10 uM
# [8] = target: Muscarinic acetylcholine receptor M3 (Homo sapiens) (UniProt P20309); test: Binding affinity to muscarinic M3 receptor (unknown origin) at 10 uM
# [9] = target: Sigma non-opioid intracellular receptor 1 (Homo sapiens) (UniProt Q99720); test: Binding affinity to sigma-1 receptor (unknown origin) at 10 uM
# [10] = target: Muscarinic acetylcholine receptor M1 (Homo sapiens, UniProt P11229); test: Binding affinity to muscarinic M1 receptor (unknown origin)
# [11] = system: Sigma 2 receptor; test: Binding affinity to sigma-2 receptor (unknown origin) at 10 uM; conditions: Homo sapiens
# [12] = target: Histamine H2 receptor (Homo sapiens) (UniProt P25021); test: Binding affinity to histamine H2 receptor (unknown origin) at 10 uM
# [13] = target: 5-hydroxytryptamine receptor 2A (Homo sapiens) (UniProt P28223); test: Displacement of [3H]ketanserin from 5HT2A receptor (unknown origin) at 10 uM
# Sequence of 5-hydroxytryptamine receptor 2A (Homo sapiens) (P28223 whole entry): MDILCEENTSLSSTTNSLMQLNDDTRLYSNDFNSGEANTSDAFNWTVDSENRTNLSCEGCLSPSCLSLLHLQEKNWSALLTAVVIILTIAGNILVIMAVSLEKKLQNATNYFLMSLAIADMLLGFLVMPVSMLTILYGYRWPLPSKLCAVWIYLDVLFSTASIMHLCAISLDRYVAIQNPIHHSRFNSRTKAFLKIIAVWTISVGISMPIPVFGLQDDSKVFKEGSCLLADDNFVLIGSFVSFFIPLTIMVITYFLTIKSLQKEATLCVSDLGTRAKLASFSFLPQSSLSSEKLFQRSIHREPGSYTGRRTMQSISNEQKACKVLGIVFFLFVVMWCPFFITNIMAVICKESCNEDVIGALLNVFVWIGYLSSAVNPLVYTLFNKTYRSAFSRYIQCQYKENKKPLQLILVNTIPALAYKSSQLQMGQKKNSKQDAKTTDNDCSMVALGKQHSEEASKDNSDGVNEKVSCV
# Sequence of Muscarinic acetylcholine receptor M4 (Homo sapiens) (P08173 whole entry): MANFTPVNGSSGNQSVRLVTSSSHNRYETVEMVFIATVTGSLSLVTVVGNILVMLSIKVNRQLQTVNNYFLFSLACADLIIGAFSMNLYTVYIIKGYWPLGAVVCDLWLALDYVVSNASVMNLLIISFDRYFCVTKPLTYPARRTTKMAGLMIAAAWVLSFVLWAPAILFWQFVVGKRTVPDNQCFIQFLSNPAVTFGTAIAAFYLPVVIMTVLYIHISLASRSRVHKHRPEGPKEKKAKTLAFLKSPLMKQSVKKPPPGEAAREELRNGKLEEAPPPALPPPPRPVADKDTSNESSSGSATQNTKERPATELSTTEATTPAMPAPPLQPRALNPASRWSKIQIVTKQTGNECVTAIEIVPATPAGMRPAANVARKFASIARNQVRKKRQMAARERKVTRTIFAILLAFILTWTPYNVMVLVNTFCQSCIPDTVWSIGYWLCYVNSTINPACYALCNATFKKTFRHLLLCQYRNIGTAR
# Sequence of Sigma non-opioid intracellular receptor 1 (Homo sapiens) (Q99720 whole entry): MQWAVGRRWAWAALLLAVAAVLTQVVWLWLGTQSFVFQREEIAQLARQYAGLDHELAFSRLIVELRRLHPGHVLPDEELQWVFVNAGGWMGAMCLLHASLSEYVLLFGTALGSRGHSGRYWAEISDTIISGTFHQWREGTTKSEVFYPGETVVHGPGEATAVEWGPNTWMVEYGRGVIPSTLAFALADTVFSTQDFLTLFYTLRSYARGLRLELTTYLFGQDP
# Sequence of Muscarinic acetylcholine receptor M1 (P11229 whole entry): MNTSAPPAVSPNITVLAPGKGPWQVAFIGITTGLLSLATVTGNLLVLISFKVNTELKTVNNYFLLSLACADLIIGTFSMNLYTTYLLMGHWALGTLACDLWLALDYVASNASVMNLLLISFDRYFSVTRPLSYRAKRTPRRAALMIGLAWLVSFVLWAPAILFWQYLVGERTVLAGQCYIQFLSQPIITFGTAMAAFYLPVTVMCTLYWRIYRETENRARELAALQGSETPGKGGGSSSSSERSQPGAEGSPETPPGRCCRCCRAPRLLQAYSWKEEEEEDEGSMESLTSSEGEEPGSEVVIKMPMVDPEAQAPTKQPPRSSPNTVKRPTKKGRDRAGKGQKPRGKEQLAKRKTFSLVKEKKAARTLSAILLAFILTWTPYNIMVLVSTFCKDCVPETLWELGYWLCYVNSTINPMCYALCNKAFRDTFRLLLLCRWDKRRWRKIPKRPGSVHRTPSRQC
# Sequence of Alpha-1B adrenergic receptor (Homo sapiens) (P35368 whole entry): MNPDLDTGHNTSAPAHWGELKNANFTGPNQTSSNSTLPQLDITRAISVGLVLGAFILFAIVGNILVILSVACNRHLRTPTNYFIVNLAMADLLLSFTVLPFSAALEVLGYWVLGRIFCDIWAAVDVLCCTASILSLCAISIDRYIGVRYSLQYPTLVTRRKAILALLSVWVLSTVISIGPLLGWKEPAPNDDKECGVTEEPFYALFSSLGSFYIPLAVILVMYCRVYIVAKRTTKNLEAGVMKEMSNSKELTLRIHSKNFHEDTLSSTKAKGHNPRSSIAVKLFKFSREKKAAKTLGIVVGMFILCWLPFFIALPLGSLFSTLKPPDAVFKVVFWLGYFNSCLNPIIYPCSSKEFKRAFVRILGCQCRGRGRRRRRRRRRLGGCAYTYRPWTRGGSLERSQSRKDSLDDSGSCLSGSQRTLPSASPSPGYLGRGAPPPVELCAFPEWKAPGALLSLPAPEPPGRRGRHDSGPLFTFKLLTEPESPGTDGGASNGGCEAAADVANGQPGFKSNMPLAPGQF
# Sequence of D(2) dopamine receptor (Homo sapiens) (P14416 whole entry): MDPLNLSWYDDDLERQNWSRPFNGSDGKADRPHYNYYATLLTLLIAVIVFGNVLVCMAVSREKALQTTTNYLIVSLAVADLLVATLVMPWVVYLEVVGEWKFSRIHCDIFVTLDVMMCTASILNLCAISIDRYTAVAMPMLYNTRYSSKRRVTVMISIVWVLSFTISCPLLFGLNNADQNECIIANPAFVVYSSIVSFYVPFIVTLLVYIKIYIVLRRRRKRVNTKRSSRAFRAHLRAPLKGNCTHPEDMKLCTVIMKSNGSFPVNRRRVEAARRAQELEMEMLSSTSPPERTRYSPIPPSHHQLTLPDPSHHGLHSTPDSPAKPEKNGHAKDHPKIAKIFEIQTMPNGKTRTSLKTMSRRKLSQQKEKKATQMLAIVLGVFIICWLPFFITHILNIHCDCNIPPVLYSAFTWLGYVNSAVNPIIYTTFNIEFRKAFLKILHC
# Sequence of 5-hydroxytryptamine receptor 1D (Homo sapiens) (P28221 whole entry): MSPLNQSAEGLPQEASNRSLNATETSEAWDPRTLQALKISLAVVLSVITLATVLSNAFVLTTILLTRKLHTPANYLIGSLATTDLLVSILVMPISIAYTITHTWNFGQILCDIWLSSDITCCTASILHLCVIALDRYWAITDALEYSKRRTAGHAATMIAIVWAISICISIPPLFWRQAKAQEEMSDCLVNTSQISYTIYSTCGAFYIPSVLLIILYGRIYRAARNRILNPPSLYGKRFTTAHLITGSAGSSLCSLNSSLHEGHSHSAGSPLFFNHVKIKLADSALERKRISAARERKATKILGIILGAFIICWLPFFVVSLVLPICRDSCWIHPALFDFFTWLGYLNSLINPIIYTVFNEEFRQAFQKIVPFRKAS
# Sequence of Histamine H2 receptor (Homo sapiens) (P25021 whole entry): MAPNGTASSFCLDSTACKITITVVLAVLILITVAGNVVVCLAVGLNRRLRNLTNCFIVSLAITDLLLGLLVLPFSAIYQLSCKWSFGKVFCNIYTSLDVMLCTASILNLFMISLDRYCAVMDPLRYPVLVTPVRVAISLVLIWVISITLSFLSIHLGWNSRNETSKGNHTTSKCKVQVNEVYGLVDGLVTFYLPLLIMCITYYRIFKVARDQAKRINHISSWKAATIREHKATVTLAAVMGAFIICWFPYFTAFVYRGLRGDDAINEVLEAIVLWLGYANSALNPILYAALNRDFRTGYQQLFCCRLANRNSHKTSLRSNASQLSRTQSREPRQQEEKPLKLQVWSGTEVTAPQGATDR
# Sequence of Muscarinic acetylcholine receptor M3 (Homo sapiens) (P20309 whole entry, looked up): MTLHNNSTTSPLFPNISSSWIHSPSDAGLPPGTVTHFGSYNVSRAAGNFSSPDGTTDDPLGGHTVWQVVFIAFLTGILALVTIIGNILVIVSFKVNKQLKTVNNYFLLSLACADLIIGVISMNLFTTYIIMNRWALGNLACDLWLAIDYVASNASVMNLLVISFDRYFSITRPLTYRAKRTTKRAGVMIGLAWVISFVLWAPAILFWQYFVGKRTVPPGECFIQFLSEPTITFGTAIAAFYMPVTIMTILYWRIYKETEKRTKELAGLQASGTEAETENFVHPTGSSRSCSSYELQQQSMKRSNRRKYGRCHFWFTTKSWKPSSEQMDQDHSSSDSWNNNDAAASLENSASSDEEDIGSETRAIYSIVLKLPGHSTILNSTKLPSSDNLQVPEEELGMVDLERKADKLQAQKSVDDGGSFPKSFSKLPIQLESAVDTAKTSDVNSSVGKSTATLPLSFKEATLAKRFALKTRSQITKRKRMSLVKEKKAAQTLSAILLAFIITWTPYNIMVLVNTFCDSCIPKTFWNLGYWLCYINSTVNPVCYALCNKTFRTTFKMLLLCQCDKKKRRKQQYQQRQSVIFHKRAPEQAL
structure (smiles),measurement,setting,value
COc1cc2c3c(c1OC)-c1cc4c(cc1CC3N(C)CC2c1ccccc1)OCO4 (stereo not drawn),inhibition,[1],< 50%
same,inhibition,[2],< 50%
same,inhibition,[3],5.5%
same,inhibition,[4],31.9%
same,inhibition,[5],< 50%
same,inhibition,[6],34.5%
same,inhibition,[7],< 50%
same,inhibition,[8],< 50%
same,inhibition,[9],< 50%
same,Ki,[10],> 10 µM
same,inhibition,[11],< 50%
same,inhibition,[12],< 50%
same,inhibition,[13],33.5%
